Legend:
Type in all cases: cell-based
S. aureus [1] = experiment: Bacteria count versus time with coated K-wires (FIG. 1)
Procedure: Additional tests were done wherein bacterial count was monitored versus time for different bacteria. In FIG. 1 the bacteria count was measured for S. aureus versus time. The K-wire alone as a control was ineffective as expected.

S. aureus biofilms [2] = experiment: Effectiveness against biofilms, K-wires incubated in S. aureus for 48 hours (FIG. 4); settings: S. aureus 48 hours
Procedure: Effectiveness of the inventive examples against biofilms was determined. Samples were prepared including a control K-wire (Control), a K-wire coated with ML only but not passed through a Septa™ (ML Coated), a sample treated with ML and passed through a Septa™ (ML Coated Septa), and inventive examples comprising ML with polymer, using OEGMA as the hydrophilic moiety (ML/POEGMA). Some of the inventive samples were passed through a Septa™ (ML/POEGMA Septa). The samples were all incubated in S. aureus for 48 hours. The results are provided graphically in FIG. 4.

[3] = test system: Methicillin-Resistant Staphylococcus Aureus (MRSA); experiment: Bacteria count versus time with coated K-wires (FIG. 2)
S. aureus [4] = experiment: Maximum concentration of bacteria inactivated in the presence of 1 cm pieces of K-wires
Procedure: Control K-wires were coated with monolaurin (ML), a natural antimicrobial agent active against S. aureus. Sample K-wires were coated with a copolymer formed from 20 mole percent glycidyl methacrylate, 60 mole percent ethylene glycol methacrylate and 20 mole percent ethylene glycol methacrylate available as OEGMA 950 from Sigma Aldrich. Some of the K-wires were pulled through Septa™, to simulate surgical insertion, and the antimicrobial activity was measured. Each example was replicated nine times.

S. aureus biofilms [5] = experiment: S. aureus biofilm formation on 1 cm K-wire pieces, 48 hours (Example 3)
Procedure: The performance of Copolymer A was compared to poly(lactide-co-glycolide) PLGA) with monolaurin as a model antimicrobial additive. S. aureus biofilms were grown by statically incubating a S. Aureus suspension with 1 cm K-wire pieces for 48 hours.

CCCCCCCCCCCC(=O)OCC(O)CO (centres unmarked) [ML, monolaurin]
bacteria count versus time (course) (S. aureus [1]): immediate decrease in bacteria due to essentially immediate release of ML, however, the activity was not sustained
effectiveness against biofilms (S. aureus biofilms [2]; not passed through a Septa): effective resistance
effectiveness against biofilms (S. aureus biofilms [2]; passed through a Septa): removed or otherwise rendered ineffective
bacteria count versus time (course) [3]: results similar to those observed for S. aureus
Maximum concentration of bacteria inactivated in the presence of 1 cm pieced of K-wires (S. aureus [4]; No Polymer after Septa, ML 1 mg/ml): 0
Maximum concentration of bacteria inactivated in the presence of 1 cm pieced of K-wires (S. aureus [4]; No Polymer after Septa, ML 3 mg/ml): 0
Maximum concentration of bacteria inactivated in the presence of 1 cm pieced of K-wires (S. aureus [4]; No Polymer after Septa, ML 5 mg/ml): 0
Maximum concentration of bacteria inactivated in the presence of 1 cm pieced of K-wires (S. aureus [4]; No Polymer after Septa, ML 10 mg/ml): 0
Maximum concentration of bacteria inactivated in the presence of 1 cm pieced of K-wires (S. aureus [4]; No Polymer, no Septa, ML 1 mg/ml): ~6 × 10^6
Maximum concentration of bacteria inactivated in the presence of 1 cm pieced of K-wires (S. aureus [4]; No Polymer, no Septa, ML 3 mg/ml): ~7 × 10^6
Maximum concentration of bacteria inactivated in the presence of 1 cm pieced of K-wires (S. aureus [4]; No Polymer, no Septa, ML 5 mg/ml): ~6 × 10^6
Maximum concentration of bacteria inactivated in the presence of 1 cm pieced of K-wires (S. aureus [4]; No Polymer, no Septa, ML 10 mg/ml): ~8 × 10^6
antimicrobial activity against biofilm formation (S. aureus biofilms [5]; after pulling the wires through silicon rubber Septa caps): lost the antimicrobial activity
prevention of biofilm formation (S. aureus biofilms [5]; before pulling through Septa, S. aureus 48 hours): efficient in preventing biofilm formation
